Source: patent publication US8518965B2, “Compositions and methods for treating cancer” (Trustees of Dartmouth College, priority 2009, dated 2013)
Read-outs that look alike come from different tables or passages of the source. Marks after values point to notes of the source that are not given here.

How the values were obtained:
[1] = system: HCT116 human colon cancer cells; assay: Colony formation assay, HCT116 cells; assay type: cell-based; conditions: 72 hours with compound, colonies counted after 24 days (Example 9), read-out: IC50
Description: (§1) NCI/ADR-RES human breast cancer cells (500 cells), HCT116 human colon cancer cells (400 cells) or SF 295 human glioblastoma cells (1000 cells) were plated in 60 mm Petri dishes containing 2.7 ml of medium (modified McCoy's 5a medium containing 10% fetal bovine serum and 100 units/ml penicillin and 100 μg/ml streptomycin). The cells were incubated in a CO2 incubator at 37° C. for 5 hours for attachment to the bottom of Petri dishes. Compounds were prepared fresh in medium at ten times the final concentration, and then 0.3 ml of this stock solution was added to the 2.7 ml of medium in the dish. The cells were then incubated with compounds for 72 hours at 37° C. At the end of incubation, the compound-containing media were decanted, the dishes were rinsed with 4 ml of Hank's Balance Salt Solution (HBSS), 5 ml of fresh medium was added, and the dishes were returned to the incubator for colony formation. The cell colonies were counted using a colony counter after incubation for 14 days for NCI/ADR-RES cells and 10 days for HCT116 cells and SF 295 cells. Cell survival was calculated and the IC50 values (the drug concentration producing 50% inhibition of colony formation) were determined for each tested compound.
Four hundred HCT116 cells were plated in 60 mm Petri dishes containing 2.7 ml of medium (modified McCoy's 5a medium containing 10% fetal bovine serum and 100 units/ml penicillin and 100 μg/ml streptomycin). The cells were incubated in a CO2 incubator at 37° C. for 5 hours for attachment to the bottom of Petri dishes. Compounds were prepared fresh in medium at ten times the final concentration, and then 0.3 ml of this stock solution was added to the 2.7 ml of medium in the dish. The cells were then incubated with drugs for 72 hours at 37° C. At the end of incubation the compound-containing media were decanted, the dishes were rinsed with 4 ml of Hank's Balance Salt Solution (HBSS), 5 ml of fresh medium was added, and the dishes were returned to the incubator for colony formation. HCT116 cell colonies were counted using a colony counter after […] of incubation. Cell survival was calculated and IC50 values were determined for each compound tested.

normal C3H/HeN mice = assay: Maximum tolerated dose (MTD40) in normal mice; conditions: suspension formulation, single intraperitoneal injection, 40 days
Description: The MTD40 (maximum tolerated dose at day 40) values were determined on normal C3H/HeN mice using standard procedures. […] The result of this exercise was two dosages, one apparently nonlethal and the other lethal, if severe and irreversible toxicity occurred and euthanasia was required. Six mice were dosed at each dosage. If no severe and irreversible toxicity occurred at the lower dosage and at least one with severe and irreversible toxicity at the higher dose, then the lower dose was considered to be the MTD.
Compounds were administered to C3H/HeN mice by intraperitoneal injection (5% alcohol, 5% CREMOPHOR® EL, and 90% saline, 0.5 ml/20 gram, single injection). Drug toxicity was evaluated on mice checked daily for 40 days. The toxicity parameters reported were the MTD40. […] At the end of experiment, all mice were euthanized.
The toxicity parameters reported were the MTD40. At the end of experiment, all mice will be euthanized.

[2] = system: SF 295 human glioblastoma cells; assay: Colony formation assay, SF 295 cells; assay type: cell-based; conditions: for Killing / inhibition of the growth of SF 295 human glioblastoma cells (in words): Example 10; for IC50: Homo sapiens, SF 295 cells, 72 hours with compound, colonies counted after 10 days (Example 10), read-out: IC50
Description: as §1
One thousand SF 295 cells were plated in 60 mm Petri dishes containing 2.7 ml of medium (modified McCoy's 5a medium containing 10% fetal bovine serum and 100 units/ml penicillin and 100 μg/ml streptomycin). The cells were incubated in a CO2 incubator at 37° C. for 5 hours for attachment to the bottom of Petri dishes. Compounds were prepared fresh in medium at ten times the final concentration, and then 0.3 ml of this stock solution was added to the 2.7 ml of medium in the dish. The cells were then incubated with the compounds for 72 hours at 37° C. At the end of incubation, the compound-containing media were decanted, the dishes were rinsed with 4 ml of Hank's Balance Salt Solution (HBSS), 5 ml of fresh medium was added, and the dishes were returned to the incubator for colony formation. After incubation for 10 days, the cell colonies were counted using a colony counter. Cell survival was calculated and the values of IC50 were determined for each compound tested.

[3] = Solubility in solvents and buffers; assay type: physicochemical
Description: Characterization of D11B. The solubility of D11B in different solvents was analyzed (Table 1).
(§2) The solubility of D11B in various combinations of solvents was also analyzed. […] For the analysis of co-solvents, stock solutions were prepared by dissolving D11B in a corresponding solvent. Stock solutions of D11B in dimethylsulfoxide (DMSO) were prepared at 25° C., and stock solutions of D11B in PEG-400, CREMOPHOR® EL and Polysorbate 80 were prepared at 100° C. Injection solutions, in water (0.3 mg/ml), were prepared by dropwise addition of the stock solution to a required volume of vigorously stirred hot water (80° C.).
The solubility of D11B×2AH in DMSO, PEG-400, EtOH, and buffer was determined (Table 7).

[4] = State of stock and injection solutions in water + co-solvents; assay type: physicochemical
Description: as §2
Additional solubility determinations were carried out with D11B×2AH in water+co-solvents. For this analysis, stock solutions were prepared by dissolving D11B×2AH in a corresponding solvent. Stock solutions of D11B×2AH in DMSO were prepared at 25° C. and stock solutions of D11B×2AH in PEG-400 were prepared at 100° C.
Injection solutions in water (0.3 mg/ml) were prepared by dropwise addition of each stock solution to a required volume of vigorously stirred water.

[5] = Homo sapiens, HCT-116, HCT116 cells

c1cc(Nc2ccc(Oc3ccc(Nc4ccncc4)cc3)cc2)ccn1 [Compound 244B]
IC50 ([1]; HCT116 cells): 3340 nM
melting point: 263 to 264 °C

c1ccc2c(Nc3ccc(Oc4ccc(Nc5c6ccccc6nc6ncccc56)cc4)cc3)c3cccnc3nc2c1 [Compound 254B]
IC50 ([1]; HCT116 cells): 722 nM
melting point: 338 to 340 °C

c1cc(Nc2ccc(Oc3ccc(Nc4ccncc4)cc3)cc2)ccn1 [Compound D244]
IC50 [1, 5]: 4220 nM

c1ccc2c(Nc3ccc(Oc4ccc(Nc5ccnc6ccccc56)cc4)cc3)ccnc2c1 [Compound D245B]
Values of MTD40 (normal C3H/HeN mice): 25 mg/kg
IC50 ([1]; HCT116 cells): 79 nM
IC50 [1, 5]: 122 nM
Killing / inhibition of the growth of SF 295 human glioblastoma cells (in words) [2]: effective
IC50 [2]: 133 nM

c1ccc2c(Nc3ccc(Oc4ccc(Nc5c6ccccc6nc6ncccc56)cc4)cc3)c3cccnc3nc2c1 [Compound D254]
IC50 ([1]; HCT116 cells): 1460 nM

c1ccc2c(c1)Cc1c-2nc2ccccc2c1Nc1ccc(Oc2ccc(Nc3c4c(nc5ccccc35)-c3ccccc3C4)cc2)cc1 [Compound D275]
Killing / inhibition of the growth of SF 295 human glioblastoma cells (in words) [2]: effective
IC50 [2]: 1420 nM
melting point: 114 to 115 °C

c1nc(Nc2ccc(Oc3ccc(Nc4ncnc5[nH]cnc45)cc3)cc2)c2nc[nH]c2n1 [Compound D276]
IC50 [2]: > 5000 nM
melting point: 372 °C

c1ccc2c(Nc3ccc(Oc4ccc(Nc5nccc6ccccc56)cc4)cc3)nccc2c1 [Compound D278]
IC50 [2]: > 5000 nM
melting point: 110 to 112 °C

c1ccc2c(Nc3ccc(Oc4ccc(Nc5ncnc6ccccc56)cc4)cc3)ncnc2c1 [Compound D281]
IC50 [2]: > 5000 nM
melting point: 124 to 125 °C

c1ccc2c(Nc3ccc(Oc4ccc(Nc5cnnc6ccccc56)cc4)cc3)cnnc2c1 [Compound D284]
IC50 [2]: > 5000 nM
melting point: 362 °C

Cc1cc(Nc2ccc(Oc3ccc(Nc4cc(C)nc5ccccc45)cc3)cc2)c2ccccc2n1 [Compound D288]
Values of MTD40 (normal C3H/HeN mice): 25 mg/kg
Killing / inhibition of the growth of SF 295 human glioblastoma cells (in words) [2]: effective
IC50 [2]: 85 nM

c1ccc2c(Nc3ccc(Oc4ccc(Nc5c6ccccc6nc6ccccc56)cc4)cc3)c3ccccc3nc2c1 [D11Bx2AH 1, D11B digluconate]
Solubility (mg/ml), 25° C. ([3]; D11Bx2AH salts, DMSO, listed as 1): 31 mg/mL
Solubility (mg/ml), 25° C. ([3]; D11Bx2AH salts, PEG-400, samples were dissolved at 100° C., listed as 1): >10 mg/mL
solubility ([3]; EtOH, 25 °C, organic solvent or mixture, D11Bx2AH salts, EtOH, read-out: Solubility (mg/ml), 25° C.): > 1 mg/mL
solubility ([3]; PEG-400, organic solvent or mixture, PEG-400 (Table 16), heating to 100° C. was required, read-out: Solubility): > 10 mg/mL
solubility ([3]; buffer, 25 °C, pH 4, aqueous buffer, D11Bx2AH salts, Buffer (pH = 4), even at 100° C., read-out: Solubility (mg/ml), 25° C.): > 0.5 mg/mL
solubility ([3]; buffer, 25 °C, pH 6, aqueous buffer, D11Bx2AH salts, Buffer (pH = 6), even at 100° C., read-out: Solubility (mg/ml), 25° C.): > 0.5 mg/mL
State of the stock solution ([4]; digluconate (1) in DMSO, 22 mg/ml): clear
State of the stock solution ([4]; digluconate (1) in DMSO, 31 mg/ml): clear
State of the injection solution ([4]; digluconate (1) in H2O—DMSO 0.3 mg/ml, stock 22 mg/ml, DMSO 1.50 wt. %): clear
State of the injection solution ([4]; digluconate (1) in H2O—DMSO 0.3 mg/ml, stock 31 mg/ml, DMSO 1.06 wt. %): clear

c1ccc2c(Nc3ccc(Oc4ccc(Nc5c6ccccc6nc6ccccc56)cc4)cc3)c3ccccc3nc2c1 [D11Bx2AH 4, D11B dilactabionate]
Solubility (mg/ml), 25° C. ([3]; D11Bx2AH salts, DMSO, listed as 4): 40 mg/mL
Solubility (mg/ml), 25° C. ([3]; D11Bx2AH salts, PEG-400, samples were dissolved at 100° C., listed as 4): >10 mg/mL
Solubility (mg/ml) ([3]; PEG-400 (Table 16), heating to 100° C. was required, listed as dilactabionate (4)): >10^ mg/ml
State of the stock solution ([4]; dilactobionate (4) in DMSO, 20 mg/ml): clear
State of the stock solution ([4]; dilactobionate (4) in DMSO, 40 mg/ml): clear
State of the injection solution ([4]; dilactobionate (4) in H2O—DMSO 0.3 mg/ml, stock 20 mg/ml, DMSO 1.36 wt. %): clear
State of the injection solution ([4]; dilactobionate (4) in H2O—DMSO 0.3 mg/ml, stock 40 mg/ml, DMSO 0.68 wt. %): clear

c1ccc2c(Nc3ccc(Oc4ccc(Nc5c6ccccc6nc6ccccc56)cc4)cc3)c3ccccc3nc2c1 [D11Bx2AH 6, D11B digallate]
Solubility (mg/ml), 25° C. ([3]; D11Bx2AH salts, DMSO, listed as 6): 325 mg/mL
Solubility (mg/ml) ([3]; PEG-400 (Table 16), heating to 100° C. was required, listed as digallate (6)): 20^a mg/ml
solubility ([3]; PEG-400, 25 °C, organic solvent or mixture, D11Bx2AH salts, PEG-400, samples were dissolved at 100° C., read-out: Solubility (mg/ml), 25° C.): 20 mg/mL
State of the stock solution ([4]; digalate (6) in DMSO, 20 mg/ml): clear
State of the stock solution ([4]; digalate (6) in DMSO, 39.9 mg/ml): clear
State of the stock solution ([4]; digalate (6) in DMSO, 77 mg/ml): clear
State of the stock solution ([4]; digalate (6) in DMSO, 158 mg/ml): clear
State of the stock solution ([4]; digalate (6) in DMSO, 325 mg/ml): clear
State of the injection solution ([4]; digalate (6) in H2O—DMSO 0.3 mg/ml, stock 20 mg/ml, DMSO 1.65 wt. %): clear
State of the injection solution ([4]; digalate (6) in H2O—DMSO 0.3 mg/ml, stock 39.9 mg/ml, DMSO 0.83 wt. %): clear
State of the injection solution ([4]; digalate (6) in H2O—DMSO 0.3 mg/ml, stock 325 mg/ml, DMSO 0.1 wt. %): prec.

c1ccc2c(Nc3ccc(Oc4ccc(Nc5c6ccccc6nc6ccccc56)cc4)cc3)c3ccccc3nc2c1 [D11Bx2AH 7, D11B bis(3,4-dihydroxyphenylacetate)]
Solubility (mg/ml), 25° C. ([3]; D11Bx2AH salts, DMSO, listed as 7): 66 mg/mL
State of the stock solution ([4]; bis(3,4-dihydroxyphenylacetate) (7) in DMSO, 66 mg/ml): clear
State of the injection solution ([4]; bis(3,4-dihydroxyphenylacetate) (7) in H2O—DMSO 0.3 mg/ml, DMSO 0.5 wt. %): clear
